Earlier results on 91 molecules are cited in the CATMoS acute toxicity set (Mansouri et al. 2021).

“And” between values parts separate entries of the source, which are not always exact repeats. Equal values may be shown once.

A short description of the data set: rat acute oral toxicity. To be noted: in vivo. The text has this: […]The data set underlying the modeling effort for this project was initially compiled by NICEATM and U.S. EPA’s CCTE. Briefly, LD50 data were collected from rat acute oral systemic toxicity tests, including limit tests, ranges/confidence intervals, and discrete LD50 values. The full data set included 21,200 LD50 entries for 15,688 substances. […] Data were reviewed to ensure that LD50 values with obvious errors in the extracted data such as unit conversion errors (e.g., comma and decimal separator misplacements) were either fixed or removed. After this review, 16,209 LD50 values remained. Many of the chemicals represented had multiple LD50 entries, requiring that a single representative value per Chemical Abstracts Service Registry Number (CASRN) identifier be defined to facilitate modeling efforts. Based on ATWG feedback and to define the representative LD50 as a protective value while accounting for the distribution across multiple LD50s, the median of the lowest quartile was computed using only discrete LD50 values (omitting limit test data and range and confidence interval data). A detailed summary of the data compilation is available online on the NICEATM webpage dedicated to the collaborative modeling project (NTP 2020).
[…][…] For categorical designations, limit test and range/confidence interval LD50 data were integrated wherever possible. As such, the number of chemicals with end point values/calls varies across the modeling end points (Table 3) based on whether chemicals had representative LD50 values and/or other data. If a chemical had both, the representative value was used to determine categorical calls rather than limit test data. Some data were useable only for certain end points and categories depending on the thresholds. For example, ranges that spanned multiple hazard categories were considered only for the binary (very toxic/nontoxic) end points and omitted from rendering a determination for hazard category assignment.
[…]The final data set comprising 11,992 chemicals was split into training and evaluation sets […], respectively. This process was performed semirandomly by ordering chemicals based on the five end points (categorical and continuous LD50 values) and partitioning every fourth record into the evaluation set accordingly. This approach was taken to ensure an equivalent distribution of the LD50 values and the different hazard categories between the training and the evaluation sets without supervised sampling of the chemicals based on structures (Figure 1A). The sources of the chemical structures were also kept equivalent between the two sets, with chemical structures obtained from DSSTox, being the highest quality, representing over 75% of each set (Figure 1B).
The term LD50 denotes the dose expected to kill half of the subjects tested. As for `CCN(CC)c1ccc(N)cc1`, the LD50 is 200 mg/kg.

Turning to `CCCCCCc1ccccc1O`, the LD50 was 1300 mg/kg.

As for `COc1cc(NC(=O)C(N=Nc2ccc(-c3ccc(N=NC(C(C)=O)C(=O)Nc4ccc(C)cc4C)c(Cl)c3)cc2Cl)C(C)=O)c(OC)cc1Cl` (stereo unspecified), the LD50 is 2230 mg/kg.

Regarding `CNC(=O)Oc1cc(C)ccc1C(C)C`, the LD50 was 500 mg/kg.

Take `CC(C)(C)CC(C)(C)c1ccc(OCCOS(=O)(=O)O)cc1`: the LD50 is 27000 mg/kg.

As to `CCOP(=O)(OCC)SCCC(F)=C(F)F`, the LD50 is 68 mg/kg.

For `C=CCOC(=O)CCCCCCC`, the LD50 is 570 mg/kg.

With `COC(=S)SSC(=S)OC`, the LD50 is 240 mg/kg.

Consider `CC1(COCCOCC2(C)CO2)CO1` (stereo unspecified), for which the LD50 was 7460 mg/kg.

As to `ClC(Cl)(Cl)CC1CO1` (stereo unspecified), the LD50 is 1500 mg/kg.

With `CCCCC(CC)CCl` (stereo unspecified), the median lethal dose (LD50) is 7340 mg/kg.

Consider `O=C(OCC1CO1)c1ccccc1C(=O)OCC1CO1` (stereo unspecified), for which the LD50 was 1240 mg/kg.

On to `CC(=O)C=Cc1ccc2c(c1)OCO2`, for which the LD50 was 4000 mg/kg.

Regarding `CCCCOCCOCCSC#N`, the LD50 is 90 mg/kg.

`C=CCc1ccc(OC(=O)NC)c(OC)c1`: the LD50 is 250 mg/kg.

In the case of `CCC1CC2CC3c4[nH]c5ccc(OC)cc5c4CCN(C2)C13` (stereo unspecified), the LD50 is 482 mg/kg.

For the molecule `CC(=NO)C(C)(O)C#Cc1ccccc1` (stereo unspecified), the LD50 was 3120 mg/kg.

As to `CC(C)=C[C@H]1[C@@H](C(=O)OCc2coc(Cc3ccccc3)c2)C1(C)C`, the LD50 was 63 mg/kg.

For the molecule `Nc1cccc2c(N)cccc12`, the LD50 was 634 mg/kg.

With `CC(C)[N+](C)(CCOC(=O)C1c2ccccc2Oc2ccccc21)C(C)C`, the LD50 is 370 mg/kg.

`COCCOC(C)OCCOC`: the 50% lethal dose (LD50) is 3260 mg/kg.

As to `O=S(=O)(O)c1ccc(N2CCC(c3ccc(Cl)cc3)=N2)cc1`, the 50% lethal dose (LD50) was 5530 mg/kg.

For `CN(CCCCCCN(C)C(=O)Oc1ccc[n+](C)c1)C(=O)Oc1ccc[n+](C)c1`, the LD50 is 10 mg/kg.

For the molecule `CCNc1nc(=O)nc(NC(C)(C)C(=O)O)[nH]1`, the LD50 is 789 mg/kg.

For `Cc1cc(C)c(C(=O)Cl)c(C)c1`, the LD50 is 2300 mg/kg.

For `COc1cc(OC)cc(OCC(O)CO)c1` (stereo unspecified), the LD50 was 2100 mg/kg.

For the molecule `CCCCCCCCNC(C)C(O)c1ccc(SC(C)C)cc1` (stereo unspecified), the LD50 is 1740 mg/kg.

Consider `CC(=O)OCC(=O)NCCCOc1cccc(CN2CCCCC2)c1`, for which the LD50 was 755 mg/kg.

On to `C=COC`, for which the LD50 was 4900 mg/kg.

For the molecule `COc1c2ccoc2cc2oc(CO[C@@H]3O[C@H](CO)[C@@H](O)[C@H](O)[C@H]3O)cc(=O)c12`, the LD50 is 1470 mg/kg.

On to `c1ccc2c(OCCN3CCCC3)ccnc2c1`, for which the LD50 was 280 mg/kg.

Take `O=C(OCc1ccccc1)c1sc(Cl)nc1C(F)(F)F`: the LD50 was 5010 mg/kg.

In the case of `CN(C)CCN(Cc1ccccc1)c1ccccc1`, the LD50 was 300 mg/kg.

In the case of `CC(C)CCOC(=O)c1ccccc1`, the LD50 is 6330 mg/kg.

Consider `CCCCCC1=CCCC1=O`, for which the LD50 was 2200 mg/kg.

Turning to `FC(F)(F)c1nc2c(Cl)c(Cl)c(Br)cc2[nH]1`, the LD50 was 2.78 mg/kg.

For the molecule `CNC(=O)Oc1ccccc1C1OCCCO1`, the LD50 was 142 mg/kg.

Regarding `CC(C)(Oc1ccc(Cl)cc1)C(=O)OCc1cccc(CO)n1`, the LD50 is 1250 mg/kg.

With `CCCCOC(=O)COc1cc(Cl)c(Cl)cc1Cl`, the LD50 is 481 mg/kg.

Turning to `CC(=O)OCC=Cc1ccccc1`, the LD50 is 3300 mg/kg.

Consider `O=C(O)Cc1c(-c2ccccc2)c(-c2ccccc2)nn1-c1ccccc1`, for which the LD50 is 13 mg/kg.

Turning to `OC[C@@H](O)[C@@H](O)[C@H](O)[C@@H](O)CO`, the LD50 is 15900 mg/kg.

For the molecule `C=CC(=O)OCC[N+](C)(C)C`, the LD50 was 500 mg/kg.

`CCC(C(=O)O)C1(O)CCCCC1` (stereo unspecified): the 50% lethal dose (LD50) was 4820 mg/kg.

Take `CCCCON=O`: the LD50 was 83 mg/kg.

Turning to `CC(C)(c1cc(Cl)c(O)c(Cl)c1)c1cc(Cl)c(O)c(Cl)c1`, the LD50 was 7430 mg/kg.

With `CCOc1ccc(N(C)C(=O)C(C(C)O)N(C)C)cc1` (stereo unspecified), the median lethal dose (LD50) was 1350 mg/kg.

Turning to `CC(C)(C)c1cc(CCC(=O)OCCSCCOC(=O)CCc2cc(C(C)(C)C)c(O)c(C(C)(C)C)c2)cc(C(C)(C)C)c1O`, the LD50 was 6300 mg/kg.

For `CC(=O)OC(C)C(Cl)(Cl)Cl` (stereo unspecified), the LD50 was 900 mg/kg.

For the molecule `CCCCCCCCCCCCOC(CBr)c1ccc(C(C)C)cc1` (stereo unspecified), the 50% lethal dose (LD50) is 250 mg/kg.

On to `COC(N)=O`, for which the LD50 is 2500 mg/kg.

On to `CCC1OCSC1=NOC(=O)NC` (stereo unspecified), for which the LD50 is 24 mg/kg.

Turning to `Oc1ccc2ccccc2c1`, the LD50 was 1960 mg/kg and 2120 mg/kg.

For the molecule `COc1cc(C)c2c(Oc3cccc(C(F)(F)F)c3)c(OC)cc(NC(C)CCCN)c2n1` (stereo unspecified), the 50% lethal dose (LD50) is 416 mg/kg.

As for `CCN(N=O)C(C)(C)C`, the 50% lethal dose (LD50) is 1600 mg/kg.

With `C#CCOc1ccccc1OC(=O)NC`, the LD50 is 60 mg/kg.

Regarding `CCC(C)C(C)(COC(N)=O)COC(N)=O` (stereo unspecified), the LD50 was 1160 mg/kg.

For the molecule `N#Cc1sc2c(=O)c3ccccc3c(=O)c=2sc1C#N`, the LD50 was 638 mg/kg.

For `COc1ccc2c(c1)c1c3n2CCN(C)C3=NCC1`, the LD50 is 1400 mg/kg.

On to `Cc1cccc(N(CCO)CCO)c1`, for which the 50% lethal dose (LD50) is 3100 mg/kg.

`O=NN1CCSC1`: the LD50 was 1950 mg/kg.

As to `CC(Cl)(C=O)CCl` (stereo unspecified), the LD50 is 1620 mg/kg.

As to `COc1ccc(N2CCN(CCCN(C)C)CC2)cc1`, the LD50 is 787 mg/kg.

On to `N#Cc1c(Cl)cccc1Cl`, for which the LD50 was 2710 mg/kg.

`CCCCCCCCCCOCCCN(C(=O)CC(C(=O)O)S(=O)(=O)O)C(CC(=O)OCC)C(=O)OCC` (stereo unspecified): the LD50 is 16200 mg/kg.

For the molecule `CC(C)C(=O)OCCc1ccccc1`, the LD50 was 5200 mg/kg.

In the case of `CCCCNC(=O)c1ccccc1`, the LD50 was 5140 mg/kg.

As for `COc1ccc2c(c1)c(CC(=O)OCC(=O)O)c(C)n2C(=O)c1ccc(Cl)cc1`, the LD50 was 24.2 mg/kg.

With `Cc1cc(N)ccc1N`, the LD50 is 98 mg/kg and 102 mg/kg.

With `O=C[C@H](O)[C@@H](O)[C@H](O)[C@H](O)CO`, the LD50 is 25800 mg/kg.

For `CN(N=O)C(=O)NC(N)=O`, the LD50 was 450 mg/kg.

As for `COc1ccc(Oc2ccc(NC(=O)N(C)C)cc2)cc1`, the LD50 is 1000 mg/kg.

Turning to `COc1cccc(CCc2ccccc2OCC(CN(C)C)OC(=O)CCC(=O)O)c1` (stereo unspecified), the LD50 is 4400 mg/kg.

For `Nc1cnn(-c2ccccc2)c(=O)c1Br`, the LD50 is 8500 mg/kg.

For the molecule `C[N+](C)(C)CCC[N+]1(C)CC2C3C=CC(CC3)C2C1` (stereo unspecified), the LD50 is 1730 mg/kg.

As for `ONc1ccccc1`, the LD50 was 100 mg/kg.

For the molecule `COC(=N)N`, the LD50 is 3700 mg/kg.

As for `O=C1CSC(=S)N1`, the 50% lethal dose (LD50) is 320 mg/kg.

For `COc1cc(C(O)C(C)NC(C)COc2ccccc2)ccc1O` (stereo unspecified), the LD50 was 1280 mg/kg.

In the case of `CCCCC(CC)CNCC(C)(N)CNCC(CC)CCCC` (stereo unspecified), the LD50 was 800 mg/kg.

For `N#CCCC1CN2CCc3cc4c(cc3C2CC1=O)OCO4` (stereo unspecified), the LD50 is 1410 mg/kg.

For `CCOC(=O)C1=CN(C(=O)CC)C2CCCC(C)N2C1=O` (stereo unspecified), the 50% lethal dose (LD50) is 2970 mg/kg.

Regarding `C=COC=O`, the LD50 was 2820 mg/kg.

As to `CC1C2Cc3ccc(O)cc3C1(C)CCN2CCc1ccccc1` (stereo unspecified), the LD50 is 90 mg/kg.

As for `Clc1cc(Cl)cc(Cl)c1`, the LD50 is 800 mg/kg.

In the case of `C=CCC`, the LD50 was 4000 mg/kg.

With `Nc1nncs1`, the LD50 was 253 mg/kg.

With `NC(=S)Nc1ccccc1`, the LD50 is 3 mg/kg.

As for `CN(Sc1ccc([N+](=O)[O-])cc1)C(=O)Oc1cccc2c1OC(C)(C)C2`, the 50% lethal dose (LD50) is 25 mg/kg.

For `Nc1ccc(C(F)(F)F)c(NC(=O)c2cccnc2)c1`, the LD50 is 800 mg/kg.

With `CC(Cc1ccccc1)NC(C#N)c1ccccc1` (stereo unspecified), the LD50 was 37.6 mg/kg.
